Here are results for one substance from patent publication US12583939B2, “Bispecific antigen binding molecules that bind HER2, and methods of use thereof” (Regeneron Pharmaceuticals, Inc., priority 2020, dated 2026).

One assay addresses T1, hErbB2-MMH (Homo sapiens, UniProt P04626).
T1 construct: myc-myc-hexahistidine (C); made in house
Kind of assay: Surface plasmon resonance binding kinetics at 25° C. The procedure:
Equilibrium dissociation constants (KD values) for hErbB2.mmh binding to anti-HER2×HER2 antibodies conjugated with either M830 or M1 were determined using a real-time surface plasmon resonance biosensor assay on a MASS-2 instrument. The MASS-2 sensor surface was derivatized by amine coupling with a monoclonal mouse anti-human Fc antibody (REGN2567) to capture anti-HER2×HER2 ADC and parent unmodified antibodies expressed with human constant regions. […] Human hErbB2 was prepared in-house expressing a C-terminal myc-myc-hexahistidine tag (hErbB2-MMH). […] Association of hErbB2-MMH to each of the captured ADCs and monoclonal antibodies was monitored for 3 minutes. Subsequently, hErbB2-MMH dissociation was monitored for 10 minutes in HBS-EP running buffer. Anti-human Fc surface was regenerated by a brief injection of 20 mM H3PO4. All binding kinetic experiments were performed at 25° C.
Kinetic association (ka) and dissociation (kd) rate constants were determined by fitting the real-time sensorgrams to a 1:1 binding model using Scrubber 2.0c curve fitting software. All sensorgrams were double referenced by subtracting buffer injection sensorgram signal from the corresponding analyte sensorgram, thereby removing artifacts caused by dissociation of the antibody from the capture surface. Binding dissociation equilibrium constants (KD) and dissociative half-lives (t½) were calculated from the kinetic rate constants as: […]

For assay [1], the system named is T47D cells. Kind of assay: Internalization and cluster formation, 3D spheroids. It is filed as cell-based. The note with it: 3D Spheroids (SD55); 10 ug/mL. As for the experimental part:
(§1) For 2D monolayer assays, T47D cells were plated on collagen-coated 96-well optical plates (Greiner, Cat #655936) at 25,000 cells/well in complete media and incubated overnight at 37° C. in 5% CO2. For 3D spheroids, cells were plated in low adhesion 96-well plates (Corning #4515) at 10,000 cells/well and incubated for 72 hours. The day of the assay, cells were incubated for 30 minutes with cold (4° C.) media containing 10 ug/mL of Alexa647 (Thermo, Cat #A37573) labeled antibodies. After, cells were washed twice (5 minutes, 100 ul, 4° C., complete medium) and incubated in complete media at 37° C. for 60 minutes. Cells were incubated for 30 minutes with cold (4° C.) media containing 4 ug/mL of Alexa488 anti-Human Fab (Jackson #109-547-003). […] After, the solution was replaced with PBS. Images were acquired with a Zeiss Spinning Disc Confocal Microscope and analyzed using Zeiss Zen Blue software. Quantification of the number of intracellular vesicles and surface clusters was performed in single confocal sections of representative images.

Assay [2] has as its system T47D cells. Kind of assay: Internalization and cluster formation, 2D monolayers. In kind it is cell-based. To be noted: 2D monolayers (SD53); 10 ug/mL. The procedure: as §1

Bounds are passed on as bounds.

For the substance “CompAb2: parental HER2×HER2 bispecific antibody of MEDI4276 (SEQ ID NO: 52 and 53) [reference compound]”, in the assay with hErbB2-MMH, the “Antigen Bound” value was determined as 177.8 RU, the ka was found to be 290000 M⁻¹ s⁻¹ and the kd was not above 1e-05 s⁻¹. Also, in the assay on T47D cells [1], the Cluster % amounted to 41% and the “Internalized Vesicles %” value was found to be 100%. Further, in the assay on T47D cells [2], the Cluster % is on record as 28% and the “Internalized Vesicles %” value was 100%.
